The structures appear in SMILES notation. Values after ≈ are worked out from the molar mass of the structure shown. Where a SMILES comes first, the peptide text is derived from it.

A short description of series [1]: U-tube sodium picrate transport experiment. The settings on record: 1 mM in chloroform, 20 mM MOPS, 100 mM NaCl, pH 7.4, 25 °C, after 24 h, UV at 356 nm. Here is the method: To assess if these compounds can act as cation carriers, U-tube experiments for sodium picrate transport were performed on 1, Cu(II)[1]Cl2 and Cu(II)[2]Cl2. […] Similarly, a U-tube experiment for chloride transport was performed using lucigenin.[4],[40]
5.7 Preparation of large unilamellar vesicles for CF release assays
A 50 mM 5(6)-carboxyfluorescein (CF) solution in MOPS buffer (20 mM MOPS, 100 mM NaCl, pH 7.4) was prepared by dissolving 5/6-CF in MOPS buffer, adding a sodium hydroxide (1M) solution dropwise until pH 11 was reached. The resulting solution was the slowly acidified to pH 7.4.
EYPC-cholesterol (4:1) 800 nm vesicles were prepared as described above, using the above mentioned 5(6)-carboxyfluorescein (CF) (50 mM) solution. […]
The U-tube was incubated in a water bath at 25 °C and the chloroform phase was stirred at 300 rpm during the entire experiment, ensuring efficient diffusion of any potential carrier-ion complex to the receiving phase. Aliquots (1 mL) were taken from the receiving phase and analysed for the presence of picrate by UV spectroscopy (at 356 nm). […]
Figure S11: U-tube metal picrate transport data for foldamer 1 (brown), Cu[2]Cl2 (black), Cu[1]Cl2 (green), and the control transporter, dibenzo-18-crown-6 (red). Absorbance at 356 nm. […]

A further series is described as follows: Solubility. It is filed as physicochemical. An excerpt: Mixing 1 or 2 with CuCl2 or CuCl provided green or blue complexes respectively. […] The blue complexes from the addition of CuCl gave very broad NMR spectra even after preparing fresh samples, which was ascribed to in situ oxidation of Cu(I); Cu(I)(TPA) complexes are very efficient one electron donors and will rapidly reduce alkyl halides[27] and oxygen.[28] Furthermore these blue products gave green solids when dried (see the ESI, Fig. S2 ^†).
Although alamethicin is a very active channel former, its use in the clinic is hampered by its high haemolytic activity.[52] […] It is known that the haemolytic activity of amphipathic peptides, including alamethicin, decreases substantially on a reduction of peptide hydrophobicity and hydrophobic moment.[56]

A short description of series [2]: HPTS assay of ionophoric activity in phospholipid vesicles. The format is biochemical. The settings on record: Table S1, HPTS assay. Here is the method:
The membrane activity of 1, 2, Cu[1]Cl2 and Cu[2]Cl2 was assessed in phospholipid vesicle membranes using 8-hydroxypyrene-1,3,6-trisulfonate (HPTS) assays. HPTS assays can show ionophoric activity that occurs via any combination of M^+/H^+ antiport, X^–/OH^– antiport, M^+/OH^– symport and X^–/H^+ symport.
The HPTS assays of 1, 2, Cu[1]Cl2 and Cu[2]Cl2 used 1 : 4 cholesterol : egg yolk phosphatidylcholine (EYPC) vesicles in MOPS buffer (pH 7.4) with 100 mM of an appropriate salt (e.g. KCl, KBr, NaCl), following previously reported procedures.[16] The resulting normalised data were fitted to pseudo first-order rate equations as an approximation (see the ESI ^†).[32] Although the change in fluorescence after the “burst phase” is likely to arise from multiple processes, including inter-vesicle transfer of foldamers,[33] this fitting allows the relative effectiveness of each compound to be compared.
CuCl2 was added at 2 min, followed by addition of 2.2 eq. EDTA at 3 min.
5.1 Preparation of large unilamellar vesicles for HPTS assays
The HPTS assays of 1, 2, Cu[1]Cl2 and Cu[2]Cl2 used 1:4 cholesterol:egg yolk phosphatidylcholine (EYPC) vesicles in MOPS buffer (pH 7.4) with 100 mM of an appropriate salt (e.g. KCl, KBr, NaCl).5 Aliquots of 1, 2, Cu[1]Cl2 or Cu[2]Cl2 dissolved in methanol were mixed with the vesicle suspensions for 60 s before adding a base pulse to change the external pH to 8.4.6 The resulting change in HPTS fluorescence was followed for 6 min, then Triton X-100 was added at 7 min to lyse the vesicles […]. Each assay was repeated three times on new vesicles. The resulting normalized data were fitted to pseudo first-order rate equations as an approximation (see the ESI), similar to the procedure of Regen and co-workers.7 Although the change in fluorescence after the “burst phase” is likely to arise from multiple processes, including inter-vesicle transfer of foldamers,8 this fitting allows the relative effectiveness of each compound to be compared.
Egg yolk phosphatidylcholine (EYPC, 64 μmol) and cholesterol (16 μmol) were dissolved in 2 mL chloroform (spectroscopic grade). The solvent was removed under reduced pressure resulting in a thin film of lipid on the inside wall of the round bottom flask, which was dried further under vacuum for 2 hours. 1.2 mL of a trisodium 8-hydroxypyrene-1,3,6-trisulfonate (HPTS, 100 mM, pH = 7.4) dye in (3-(N-morpholino) propanesulfonic acid) buffer (20 mM MOPS, 100 mM MX (M = K or Na, X = Cl, Br or NO3− adjusted to pH 7.4 using NaOH) were added to the lipid film. Afterwards, the thin film was detached from the sides of the flask by vortex mixing. The resulting lipid suspension was then extruded 19 times through an 800 nm polycarbonate membrane in an Avestin Liposofast extruder to give a suspension of 800 nm large unilamellar vesicles. Unencapsulated HPTS dye was removed by gel permeation chromatography on PD-10 SEC columns (Sephadex G-25). Hereby 1 mL of the 800 nm vesicle suspension was diluted to 2.5 mL with 20 mM MOPS buffer solution and loaded onto the GPC column. The suspension run onto the column, followed by 3.5 mL of 20 mM MOPS buffer, which were collected, giving a stock vesicle solution of 3.5 mL (final concentration of lipids = 15.23 mM). This solution of vesicles was used directly in the HPTS experiments.
5.2 Procedure for HPTS assays
100 μL of the vesicle stock solution was diluted to 2 mL with 20 mM MOPS buffer (final lipid concentration in cuvette 0.762 mM). To this vesicle suspension was then added 20 μL of the principle compound in methanol (1 mM or 0.6 mM for Cu[2]Cl2) and the cuvette was equipped with a stirrer bar. The cuvette was […]

Consider `CC(C)(C)OC(=O)C(C)(C)NC(=O)C(C)(C)NC(=O)C(C)(C)NC(=O)C(C)(C)NC(=O)C(C)(C)NC(=O)C(C)(C)NC(=O)C(C)(C)NC(=O)C(C)(C)n1cc(CN(Cc2ccccn2)Cc2ccccn2)nn1` [foldamer 1] (HELM PEPTIDE1{[CC(C)(C(=O)[*:2])n1cc(CN(Cc2ccccn2)Cc2ccccn2)nn1].[Aib].[Aib].[Aib].[Aib].[Aib].[Aib].[Aib].[CC(C)(C)O[*:1]]}$$$$V2.0), for which, in series [1], the “sodium picrate transport across the bulk chloroform phase” value is recorded as “No transport across the bulk phase was observed”. The same compound showed a solubility limit in “Solubility” of 20 µM (≈ 20.4 µg/mL). Further, the “Apparent observed rate constant kobs, KBr” value in series [2] (100 mM KBr, compound 10 µM) is given as 3.3 10−3 s−1. Besides, the “Apparent observed rate constant kobs, KCl” value in series [2] (100 mM KCl, compound 10 µM) is 3 10−3 s−1. Moreover, the “Apparent observed rate constant kobs, KNO3” value in series [2] (100 mM KNO3, compound 10 µM) is 4 10−3 s−1. Also, in series [2] (100 mM NaCl, compound 10 µM, methanol control 1 × 10−3 s−1), the “Apparent observed rate constant kobs, NaCl” value is reported as 4 10−3 s−1.

These data come from article PMC7481839, “Switchable foldamer ion channels with antibacterial activity” (Chemical Science, 2020).
